Laboratory results published in ChEMBL document CHEMBL1139949, “Structure-activity relationship, kinetic mechanism, and selectivity for a new class of ubiquitin C-terminal hydrolase-L1 (UCH-L1) inhibitors” (Bioorg Med Chem Lett, 2007).
The source made the active and inactive calls. No cut-off for these calls is given here.

Key:
Papain (Carica papaya) = target: T1, Papain (Carica papaya) (UniProt P00784); assay: Inhibition of papain at 40 uM
T1 sequence (whole entry): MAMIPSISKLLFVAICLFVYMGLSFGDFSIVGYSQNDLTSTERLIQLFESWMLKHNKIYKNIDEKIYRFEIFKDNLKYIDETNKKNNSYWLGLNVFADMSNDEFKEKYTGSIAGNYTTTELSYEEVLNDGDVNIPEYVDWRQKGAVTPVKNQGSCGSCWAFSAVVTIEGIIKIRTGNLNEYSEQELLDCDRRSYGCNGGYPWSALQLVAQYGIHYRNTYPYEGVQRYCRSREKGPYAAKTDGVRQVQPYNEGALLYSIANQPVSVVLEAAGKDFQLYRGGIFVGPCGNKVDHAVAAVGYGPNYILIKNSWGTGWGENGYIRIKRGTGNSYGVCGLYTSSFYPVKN

[1] = target: T2, Ubiquitin carboxyl-terminal hydrolase 5 (Homo sapiens) (UniProt P45974); assay: Inhibition of isopeptidase T at 40 uM
T2 sequence (whole entry): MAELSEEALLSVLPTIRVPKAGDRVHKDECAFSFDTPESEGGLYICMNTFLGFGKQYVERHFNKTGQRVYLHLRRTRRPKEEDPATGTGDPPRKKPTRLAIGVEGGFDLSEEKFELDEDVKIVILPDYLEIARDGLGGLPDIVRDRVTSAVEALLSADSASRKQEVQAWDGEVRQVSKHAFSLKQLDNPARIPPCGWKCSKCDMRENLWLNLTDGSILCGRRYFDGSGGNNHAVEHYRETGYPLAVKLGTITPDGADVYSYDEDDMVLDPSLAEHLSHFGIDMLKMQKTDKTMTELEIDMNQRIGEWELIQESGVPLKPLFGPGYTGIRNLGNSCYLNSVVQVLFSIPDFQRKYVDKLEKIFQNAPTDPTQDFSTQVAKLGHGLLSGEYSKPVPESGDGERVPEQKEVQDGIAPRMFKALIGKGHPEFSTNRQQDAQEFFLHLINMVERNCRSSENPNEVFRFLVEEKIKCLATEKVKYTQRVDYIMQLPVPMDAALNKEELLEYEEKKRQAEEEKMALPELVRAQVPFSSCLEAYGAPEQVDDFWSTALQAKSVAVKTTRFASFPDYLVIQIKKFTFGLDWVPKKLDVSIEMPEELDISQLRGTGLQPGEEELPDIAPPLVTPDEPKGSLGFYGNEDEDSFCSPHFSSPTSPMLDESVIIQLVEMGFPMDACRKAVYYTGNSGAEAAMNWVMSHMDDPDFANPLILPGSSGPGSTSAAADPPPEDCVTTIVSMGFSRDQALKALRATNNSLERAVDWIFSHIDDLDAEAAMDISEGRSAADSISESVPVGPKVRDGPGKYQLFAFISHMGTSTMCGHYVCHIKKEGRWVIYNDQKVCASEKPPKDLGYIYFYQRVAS

[2] = target: T3, Ubiquitin carboxyl-terminal hydrolase isozyme L3 (Homo sapiens) (UniProt P15374); assay: Inhibition of UCHL3 at 20 uM
T3 sequence (whole entry): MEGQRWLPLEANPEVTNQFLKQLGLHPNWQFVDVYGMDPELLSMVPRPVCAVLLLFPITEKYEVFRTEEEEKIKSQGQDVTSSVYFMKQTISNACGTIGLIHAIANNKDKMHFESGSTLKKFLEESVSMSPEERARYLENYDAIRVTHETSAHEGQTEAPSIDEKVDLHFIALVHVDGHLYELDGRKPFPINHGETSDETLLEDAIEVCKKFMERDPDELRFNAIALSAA

[3] = target: T4, Protein-glutamine gamma-glutamyltransferase (Homo sapiens) (UniProt P21980); assay: Inhibition of TGase 2 at 40 uM
T4 sequence (whole entry): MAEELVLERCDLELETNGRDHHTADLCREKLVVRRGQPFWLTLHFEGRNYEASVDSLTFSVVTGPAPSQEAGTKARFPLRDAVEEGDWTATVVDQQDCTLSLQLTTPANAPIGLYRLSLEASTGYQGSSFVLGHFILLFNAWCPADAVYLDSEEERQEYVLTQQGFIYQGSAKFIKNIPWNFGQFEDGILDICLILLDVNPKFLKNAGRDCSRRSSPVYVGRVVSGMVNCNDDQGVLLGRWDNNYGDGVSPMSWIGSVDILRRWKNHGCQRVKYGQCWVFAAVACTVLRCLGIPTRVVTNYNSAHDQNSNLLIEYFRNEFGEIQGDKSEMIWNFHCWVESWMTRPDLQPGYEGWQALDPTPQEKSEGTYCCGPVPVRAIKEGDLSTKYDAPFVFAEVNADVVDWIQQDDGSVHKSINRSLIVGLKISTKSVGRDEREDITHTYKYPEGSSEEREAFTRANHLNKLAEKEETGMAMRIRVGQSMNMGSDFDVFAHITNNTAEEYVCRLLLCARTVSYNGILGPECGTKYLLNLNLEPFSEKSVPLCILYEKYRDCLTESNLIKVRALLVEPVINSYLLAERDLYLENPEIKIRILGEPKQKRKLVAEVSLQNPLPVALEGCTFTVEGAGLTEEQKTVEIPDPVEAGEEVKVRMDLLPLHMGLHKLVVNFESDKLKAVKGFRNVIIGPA

Caspase-3 (Homo sapiens) = target: T5, Caspase-3 (Homo sapiens) (UniProt P42574); assay: Inhibition of caspase 3 at 40 uM
T5 sequence (whole entry): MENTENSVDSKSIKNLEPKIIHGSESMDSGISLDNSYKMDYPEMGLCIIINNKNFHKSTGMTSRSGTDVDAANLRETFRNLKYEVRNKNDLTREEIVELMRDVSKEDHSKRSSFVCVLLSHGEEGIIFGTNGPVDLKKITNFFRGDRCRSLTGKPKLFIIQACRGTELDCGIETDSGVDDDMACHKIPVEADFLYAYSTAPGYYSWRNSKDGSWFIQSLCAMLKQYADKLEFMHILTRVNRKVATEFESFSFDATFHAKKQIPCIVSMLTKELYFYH

N2a = assay: Cytotoxicity against serum-starved mouse N2A cells at 0.1 mM; assay type: cell-based; conditions: 100 µM

Row | Structure (SMILES) | Activity (Papain (Carica papaya)) | Activity [1] | inhibition [2] [%] | Activity [3] | Activity [2] | Activity (Caspase-3 (Homo sapiens)) | Activity (N2a)
1 | Nc1c(C(=O)c2ccc(Cl)cc2)sc2[nH]c(=O)c(C(=O)O)cc12 | inactive |  |  |  |  |  | 
2 | Cc1ccc(C(=O)c2sc3[nH]c(=O)c(C(=O)O)cc3c2N)cc1 | inactive | inactive | 30 |  |  |  | 
3 | Cl.Nc1c(C(=O)c2ccccc2)sc2[nH]c(=O)c(C(=O)O)cc12 | inactive |  |  | inactive | inactive | inactive | Non-toxic
